Results published in patent US20240058450A1, “BCL-XL Inhibitory Compounds Having Low Cell Permeability and Antibody Drug Conjugates Including the Same” (AbbVie Inc., priority 2014, published 2024).
Where two headings read alike, the source gives them in different places.

Assays:
[1] = target: Bcl-xL (Homo sapiens, UniProt Q07817); assay: Time Resolved-Fluorescence Resonance Energy Transfer (TR-FRET) binding assay, competition with probe F-Bak
Procedure, shortened: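 TR-FRET binding assay run at room temperature for 2 h after mixing compound with Bcl-xL protein, F-Bak probe and Tb-labelled antibody. Test compounds diluted from a 2× 50 μM stock. Ki values derived via Wang's equation from 520/495 nm emission under 340 nm excitation, in the absence of serum or with 1% HS.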

[2] = system: Molt-4 human acute lymphoblastic leukemia cells; assay: Molt-4 cell viability assay (CellTiter-Glo, 48 hours, 10% HS); assay type: cell-based; conditions: non-permeabilized cells
Procedure, shortened: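 Cells were seeded at 12,500 per well in medium with 10% human serum and exposed to a 3-fold compound dilution series from 10 μM to 0.0005 μM. After 48 h, viable cells were quantified by CellTiter-Glo luminescence. Each concentration was run in duplicate on at least 3 occasions.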

[3] = system: permeabilized Bcl-xL dependent Molt-4 cells; assay: Cytochrome C release in selectively (digitonin) permeabilized Molt-4 cells; assay type: cell-based, human; conditions: 4 h treatment, read-out: Molt-4 Permeabilized Cyt C Release
Excerpt: The permeabilization of the mitochondrial outer membrane to release proteins from the intermembrane space into the cytosol is a pivotal event in the process of apoptosis. Specifically, the release of cytochrome C triggers the formation of the apoptosome which, in turn, results in caspase activation and other events that will commit the cell to undergo programmed cell death (Goldstein el al., 2005, Cell Death and Differentiation 12:453). The process of mitochondrial outer membrane permeabilization (MOMP) is controlled by the Bcl-2 family members. It is promoted by the multidomain pro-apoptotic proteins Bax and Bak which, upon activation, oligomerize on the outer mitochondrial membrane and form pores to ultimately release cytochrome C. This action is antagonized by the antiapoptotic members, including Bcl-2 and Bcl-xL. Compounds that are capable of inhibiting Bcl-2 or Bcl-xL, for example, in cells that depend upon these proteins for survival, can cause activation of Bax and or Bak, MOMP, release of cytochrome C and the mentioned downstream steps in the apoptotic process. This process of cytochrome C release can be measured in cells via Western blot of both mitochrondrial and cytosolic fractions, and can be used a proxy measurement of apoptosis in cells.
As a means of detecting the ability of a Bcl-xL inhibitor with low cell-permeability to cause release of cytochrome C, the cells can be treated with an agent that causes selective pore formation in the plasma membrane, but not the mitochondrial membrane. Specifically, the cholesterol/phospholipid ratio is much higher in the plasma membrane than the mitochondrial membrane. […] This agent forms insoluble complexes with cholesterol leading to the segregation of cholesterol from its normal phospholipid binding sites. This action, in turn, leads to the formation of holes about 40-50 Å wide in the lipid bilayer. Once the plasma membrane is permeabilized, cytosolic components able to pass over digitonin-formed holes can be washed out, including the cytochrome C that was released from mitochondria to cytosol in the apoptotic cells ((Campos, 2006, Cytometry A 69(6):515-523)).
To determine if Bcl-xL inhibitors were inducing cell death through apoptosis, cytochrome C release was measured in Bcl-xL dependent Molt-4 cells following treatment Specifically, 1×10^6 cells were treated for 4 h (37° C., 5% CO2) with the test compounds in half-log dilutions starting at 3.0 μM and ending at 0.01 μM. Cells were then processed as described in Chen et al., 2011, Mol. Cancer Ther. 10:2340-2350 (the Bcl-2/Bcl-X(L)/Bcl-w inhibitor, navitoclax, enhances the activity of chemotherapeutic agents in vitro and in vivo.).

[4] = in the presence of 1% HS, read-out: Bcl-xL Binding Ki (nM, 1% HS)
[5] = without HS, read-out: Bcl-xL Binding Ki

Bcl-xL, sequence (Q07817 whole entry): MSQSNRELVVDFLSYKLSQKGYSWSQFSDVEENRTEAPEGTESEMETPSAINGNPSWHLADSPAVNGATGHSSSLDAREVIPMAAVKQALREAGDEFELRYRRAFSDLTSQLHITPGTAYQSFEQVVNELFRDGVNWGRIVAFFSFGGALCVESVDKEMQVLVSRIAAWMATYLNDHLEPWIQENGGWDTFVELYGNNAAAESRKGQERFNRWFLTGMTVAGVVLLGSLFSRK

Row | SMILES | Ki [1, 4] | Ki [1, 5] | EC50 [2] | EC50 [3] | EC50 ([3]; Homo sapiens, MOLT-4, 4 h) | EC50 ([2]; Homo sapiens, MOLT-4, 48 h)
1 | Cc1c(-c2ccc(N3CCc4cccc(C(=O)Nc5nc6ccccc6s5)c4C3)nc2C(=O)O)cnn1CC12CC3(C)CC(C)(C1)CC(OCCN(CCOCCOCCN)Cc1ccc(CC4O[C@H](C(=O)O)[C@@H](O)[C@H](O)[C@H]4O)cc1)(C3)C2 (stereo partly drawn) [Example 1.18, 6-{4-[({2-[2-(2-aminoethoxy)ethoxy]ethyl}[2-({3-[(4-{6-[8-(1,3-benzothiazol-2-ylcarbamoyl)-3,4-dihydroisoquinolin-2 (1H)-yl]-2-carboxypyridin-3-yl}-5-methyl-1H-pyrazol-1-yl)methyl]-5,7-dimethyltricyclo[3.3.1.1^3,7]dec-1-yl}oxy)ethyl]amino)methyl]benzyl}-2,6-anhydro-L-gulonic acid] | 1.38 nM | < 0.001 nM | 3330 nM | < 0.5 nM | 1 to 5 nM | –
2 | Cc1c(-c2ccc(N3CCc4cccc(C(=O)Nc5nc6ccccc6s5)c4C3)nc2C(=O)O)cnn1CC12CC3(C)CC(C)(C1)CC(OCCNCCS(=O)(=O)O)(C3)C2 [Example 1.2, 6-[8-(1,3-benzothiazol-2-ylcarbamoyl)-3,4-dihydroisoquinolin-2 (1H)-yl]-3-(1-[(3,5-dimethyl-7-{12-[(2-sulfoethyl)amino]ethoxy}tricyclo[3.3.1.1^3,7]dec-1-yl)methyl]-5-methyl-1H-pyrazol-4-yl}pyridine-2-carboxylic acid] | 0.16 nM | < 0.001 nM | – | – | < 0.5 nM | –
3 | Cc1c(-c2ccc(N3CCc4c(OCCNCCC(=O)O)ccc(C(=O)Nc5nc6ccccc6s5)c4C3)nc2C(=O)O)cnn1CC12CC3(C)CC(C)(C1)CC(OCCN(C)CCS(=O)(=O)O)(C3)C2 [Example 1.49, 6-[8-(1,3-benzothiazol-2-ylcarbamoyl)-5-{2-[(2-carboxyethyl)amino]ethoxy}-3,4-dihydroisoquinolin-2 (1H)-yl]-3-{1-[(3,5-dimethyl-7-{2-[methyl(2-sulfoethyl)amino]ethoxy}tricyclo[3.3.1.1^3,7]dec-1-yl)methyl]-5-methyl-1H-pyrazol-4-yl}pyridine-2-carboxylic acid] | – | – | – | – | < 0.5 nM | 92 nM
4 | Cc1c(-c2ccc(-c3ccc4cccc(C(=O)Nc5nc6ccccc6s5)c4c3)nc2C(=O)O)cnn1CC12CC3(C)CC(C)(C1)CC(OCCNCCCS(=O)(=O)O)(C3)C2 [Example 1.35, 6-[8-(1,3-benzothiazol-2-ylcarbamoyl)naphthalen-2-yl]-3-{1-[(3,5-dimethyl-7-{2-[(3-sulfopropyl)amino]ethoxy}tricyclo[3.3.1.1^3,7]dec-1-yl)methyl]-5-methyl-1H-pyrazol-4-yl}pyridine-2-carboxylic acid] | 0.439 nM | < 0.001 nM | – | – | – | 238 nM
5 | Cc1c(-c2ccc(N3CCc4cccc(C(=O)Nc5nc6ccccc6s5)c4C3)nc2C(=O)O)cnn1CC12CC3(C)CC(C)(C1)CC(OCCN(CCNCCS(=O)(=O)O)CCS(=O)(=O)O)(C3)C2 [Example 1.48, 6-[8-(1,3-benzothiazol-2-ylcarbamoyl)-3,4-dihydroisoquinolin-2 (1H)-yl]-3-{1-[(3,5-dimethyl-7-{2-[(2-sulfoethyl){2-[(2-sulfoethyl)amino]ethyl}amino]ethoxy}tricyclo[3.3.1.1^3,7]dec-1-yl)methyl]-5-methyl-1H-pyrazol-4-yl}pyridine-2-carboxylic acid] | 0.497 nM | < 0.001 nM | – | – | – | 692 nM
6 | Cc1c(-c2ccc(N3CCc4cccc(C(=O)Nc5nc6ncccc6s5)c4C3)nc2C(=O)O)cnn1CC12CC3(C)CC(C)(C1)CC(OCCN(CCCP(=O)(O)O)C1CCNCC1)(C3)C2 [Example 1.50, 3-{1-[(3,5-dimethyl-7-{2-[(3-phosphonopropyl)(piperidin-4-yl)amino]ethoxy)tricyclo[3.3.1.1^3,7]dec-1-yl)methyl]-5-methyl-1H-pyrazol-4-yl}-6-[8-([1,3]thiazolo[4,5-b]pyridin-2-ylcarbamoyl)-3,4-dihydroisoquinolin-2 (1H)-yl]pyridine-2-carboxylic acid] | 0.051 nM | 0.0073 nM | – | – | – | 2770 nM
7 | Cc1c(-c2ccc(-c3ccc4cncc(C(=O)Nc5nc6ccccc6s5)c4c3)nc2C(=O)O)cnn1CC12CC3(C)CC(C)(C1)CC(OCCNCCS(=O)(=O)O)(C3)C2 [Example 1.78, 6-[4-(1,3-benzothiazol-2-ylcarbamoyl)isoquinolin-6-yl]-3-{1-[(3,5-dimethyl-7-(2-[(2-sulfoethyl)amino]ethoxy}tricyclo[3.3.1.1^3,7]dec-1-yl)methyl]-5-methyl-1H-pyrazol-4-yl}pyridine-2-carboxylic acid] | < 0.01 nM | < 0.01 nM | – | – | – | 2.22 nM
8 | Cc1c(-c2ccc(-c3cnc4cccc(C(=O)Nc5nc6ccccc6s5)c4c3)nc2C(=O)O)cnn1CC12CC3(C)CC(C)(C1)CC(OCCNCCC(=O)O)(C3)C2 [Example 1.71, 6-[5-(1,3-benzothiazol-2-ylcarbamoyl)quinolin-3-yl]-3-{1-[(3-{2-[(2-carboxyethyl)amino]ethoxy}-5,7-dimethyltricyclo[3.3.1.1^3,7]dec-1-yl)methyl]-5-methyl-1H-pyrazol-4-yl}pyridine-2-carboxylic acid] | 0.061 nM | < 0.01 nM | – | – | – | 677 nM
9 | Cc1c(-c2ccc(N3CCc4cccc(C(=O)Nc5nc6ccccc6s5)c4C3)nc2C(=O)O)cnn1CC12CC3(C)CC(C)(C1)CC(OCCN(CCS(=O)(=O)O)C1CCNCC1)(C3)C2 [Example 1.30, 6-[8-(1,3-benzothiazol-2-ylcarbamoyl)-3,4-dihydroisoquinolin-2 (1H)-yl]-3-{1-[(3,5-dimethyl-7-{2-[piperidin-4-yl(2-sulfoethyl)amino]ethoxy}tricyclo[3.3.1.1^3,7]dec-1-yl)methyl]-5-methyl-1H-pyrazol-4-yl}pyridine-2-carboxylic acid] | 0.12 nM | < 0.001 nM | – | – | – | 184 nM
10 | Cc1c(-c2ccc(N3CCc4cccc(C(=O)Nc5nc6cccnc6s5)c4C3)nc2C(=O)O)cnn1CC12CC3(C)CC(C)(C1)CC(OCCNCCCP(=O)(O)O)(C3)C2 [Example 1.40, 3-{1-[(3,5-dimethyl-7-{2-[(3-phosphonopropyl)amino]ethoxy}tricyclo[3.3.1.1^3,7]dec-1-yl)methyl]-5-methyl-1H-pyrazol-4-yl}-6-[8-([1,3]thiazolo[5,4-b]pyridin-2-ylcarbamoyl)-3,4-dihydroisoquinolin-2 (1H)-yl]pyridine-2-carboxylic acid] | 6.28 nM | < 0.001 nM | – | – | – | 6480 nM
11 | Cc1c(-c2ccc(-c3ccc4c(c3)N(C(=O)Nc3nc5ccccc5s3)CCC4)nc2C(=O)O)cnn1CC12CC3(C)CC(C)(C1)CC(OCCN(C)C(=O)[C@@H](N)CS(=O)(=O)O)(C3)C2 [Example 1.21, 6-[1-(1,3-benzothiazol-2-ylcarbamoyl)-1,2,3,4-tetrahydroquinolin-7-yl]-3-(1-[(3,5-dimethyl-7-(2-[methyl(3-sulfo-L-alanyl)amino]ethoxy}tricyclo[3.3.1.1^3,7]dec-1-yl)methyl]-5-methyl-1H-pyrazol-4-yl)pyridine-2-carboxylic acid] | 0.22 nM | 0.004 nM | – | – | – | 420 nM
12 | Cc1c(-c2ccc(N3CCc4cccc(C(=O)Nc5nc6ccccc6s5)c4C3)nc2C(=O)O)cnn1CC12CC3(C)CC(C)(C1)CC(OCCNCCOCCOCC(=O)O)(C3)C2 [Example 1.1, 6-[8-(1,3-benzothiazol-2-ylcarbamoyl)-3,4-dihydroisoquinolin-2 (1H)-yl]-3-[1-({3-[2-({2-[2-(carboxymethoxy)ethoxy]ethyl}amino)ethoxy]-5,7-dimethyltricyclo[3.3.1.1^3,7]dec-1-yl]methyl)-5-methyl-1H-pyrazol-4-yl]pyridine-2-carboxylic acid] | 0.09 nM | < 0.001 nM | – | – | – | 26 nM
